Test results taken from US5627271A, “Glycolipids, their preparation and use” (Genzyme Limited, priority 1992, dated 1997).
Where “and” joins values, the source holds several entries; their conditions need not be identical. Equal entries are not always repeated.

Experiments:
α2-3 sialyltransferase = molecular target: T1, α2-3 sialyltransferase (Sus scrofa, UniProt Q02745); experiment: Incorporation of radio-labelled CMP-NANA into glycolipid acceptors by α2-3 sialyltransferase; type: biochemical, porcine
T1 construct: from porcine liver; from tissue; host or cells: porcine liver
T1 sequence (Q02745 1-343): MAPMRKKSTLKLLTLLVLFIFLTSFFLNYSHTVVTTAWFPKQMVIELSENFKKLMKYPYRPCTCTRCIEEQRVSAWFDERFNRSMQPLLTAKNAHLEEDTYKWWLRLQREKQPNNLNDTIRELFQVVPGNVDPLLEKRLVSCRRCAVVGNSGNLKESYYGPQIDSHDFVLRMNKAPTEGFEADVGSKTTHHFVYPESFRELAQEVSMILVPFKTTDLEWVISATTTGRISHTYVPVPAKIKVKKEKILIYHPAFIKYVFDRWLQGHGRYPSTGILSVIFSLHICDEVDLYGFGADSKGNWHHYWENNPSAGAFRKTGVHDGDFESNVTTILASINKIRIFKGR
Protocol: (§1) Various glycolipids have been incubated with α2-3 and α2-6 sialyltransferases (from porcine and rat liver) in the presence of radio-labelled CMP-NANA. […] Other glycolipids could accept NANA, but in relatively low yields.
However, this transferase should be able to use glycolipid (54) as an acceptor.

α2-6 sialyltransferase = molecular target: T2, α2-6 sialyltransferase (Rattus norvegicus, UniProt P13721); experiment: Incorporation of radio-labelled CMP-NANA into glycolipid acceptors by α2-6 sialyltransferase; type: biochemical
T2 construct: (from porcine and rat liver); from tissue; host or cells: rat liver
T2 sequence (P13721 1-403): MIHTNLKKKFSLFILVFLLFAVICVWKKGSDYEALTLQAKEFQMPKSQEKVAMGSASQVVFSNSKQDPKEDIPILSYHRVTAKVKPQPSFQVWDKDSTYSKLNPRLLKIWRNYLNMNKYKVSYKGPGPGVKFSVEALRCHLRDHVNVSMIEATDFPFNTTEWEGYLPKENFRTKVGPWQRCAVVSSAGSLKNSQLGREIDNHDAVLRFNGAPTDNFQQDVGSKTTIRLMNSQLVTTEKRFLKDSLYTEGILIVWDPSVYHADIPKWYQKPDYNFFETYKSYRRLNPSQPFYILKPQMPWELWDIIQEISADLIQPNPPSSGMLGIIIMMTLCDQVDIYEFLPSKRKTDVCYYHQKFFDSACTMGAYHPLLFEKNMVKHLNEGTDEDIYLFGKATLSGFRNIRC
Protocol: as §1

galactosyltransferase = experiment: Test as substrate for galactosyltransferase; type: biochemical, bovine; settings: with and without the detergent Triton CF-54
Protocol: Compound (28): The acceptor (27) (16.5 mg, 31.2 μmol) was sonicated carefully for 15 min in 39 μl of 40 mM MnCl2, 93 μl of 50 mM NaN3, 102 μl and 330 μl of sodium cacodylate buffer pH 7.4 100 mM and 50 mM respectively. Then 35 μl of 2% BSA, 5.5 μl (5.5 U) of 1 U/μl calf intestinal alkaline phosphatase, 143 μl (1.92 U) of 6.7 U/500 μl UDP-Glc 4--epimerase, 29 μl (487 mU) of 8.4 U/500 μl galactosyl-transferase and 21.9 mg (37.9 μmol, 1.2 eq.) of UDP-Glc were added. The final concentrations were as follows: [Acceptor]=40 mM, [UDP-Glc]=49 mM, [MnCl2 ]=2 mM, [NAN3 ]=6 mM, [Sodium cacodylate]=50 mM.
The GlcNAc ceramide (40) has been tested as a substrate for the galactosyltransferase with and without the addition of the detergent Triton CF-54. No conversion was obtained.

[1] = molecular target: T3, α1-3 fucosyl transferase VI (Homo sapiens, UniProt P51993); experiment: Test as substrate for α1-3 fucosyl transferase VI with radio-labelled GDP-[14C]fucose; type: biochemical; settings: for Competition for incorporation of fucose into lipid (acceptor quality): 0.2 mM (28) with 0 to 2 mM N-acetyllactosamine; for Percentage of fucose transferred: 0.5 mU fucosyl transferase, 1 hour
T3 sequence (P51993 1-359): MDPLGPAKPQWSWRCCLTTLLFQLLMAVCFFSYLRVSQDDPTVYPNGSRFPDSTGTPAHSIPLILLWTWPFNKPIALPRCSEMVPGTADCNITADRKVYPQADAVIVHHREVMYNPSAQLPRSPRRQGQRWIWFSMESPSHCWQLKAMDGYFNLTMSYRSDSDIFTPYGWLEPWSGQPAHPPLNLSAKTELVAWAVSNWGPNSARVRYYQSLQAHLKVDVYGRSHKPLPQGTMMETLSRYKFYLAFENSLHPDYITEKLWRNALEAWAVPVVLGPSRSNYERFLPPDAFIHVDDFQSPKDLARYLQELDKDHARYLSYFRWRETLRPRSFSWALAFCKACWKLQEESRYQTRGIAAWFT
Protocol: The acceptor (28) was tested as a substrate for α1-3 fucosyl transferase VI, by incubation with the enzyme and radio-labelled GDP-[^14 C]fucose. The reaction conditions were: 45 mM Mes pH 6.5; 27 μM GDP-Fuc; 0.1% BSA; 0.1 mM NaCl; 5 mM MnCl2; 5 mM MgCl2; incubation at 37° C.). The reaction mixture was passed through a Sep-Pak C18 cartridge which was washed with 0.2M NaCl to ensure separation of all hydrophilic material. The lipid fraction was then eluted with MeOH. The incorporation of radioactivity into lipids was measured by scintillation counting.
In a first experiment, the transfer was monitored with time, using 0.2 mM (28) and 0.1 mU fucosyltransferase/100 μl incubation, and compared to a control incubation containing no acceptor. […] In a further experiment, but using 0.5 mU fucosyl transferase over 1 hour, the transfer of fucose was measured at 0.2, 1, 5 and 24 mM concentrations of (28). The percentage of fucose transferred was respectively about 50%, 60%, 65% and 70%.
Competition experiments were also carried out, using 0.2 mM acceptor (28), in the presence of various concentrations (0 to 2 mM) of N-acetyllactosamine which is a known substrate for the enzyme. The samples were analysed as before, for incorporation of fucose into lipid.

[2] = acceptor conc. 12 mM, bracketed numbers are background

Q: CCCCCCCCCCCCC/C=C/[C@@H](O)[C@@H](N)CO[C@@H]1O[C@H](CO)[C@@H](O[C@@H]2O[C@H](CO)[C@H](O)[C@H](O)[C@H]2O)[C@H](O)[C@H]1O [(1)] was tested. Which “α2-3ST yield (%) of incorporation of radio-labelled CMP-NANA” value (shortened to “α2-3ST yield (%)”) (α2-3 sialyltransferase; acceptor conc. 12 mM) did it give?
A: Its value is 1.5%.

Q: What about the “α2-3ST yield (%)” value (α2-3 sialyltransferase; acceptor conc. 100 mM) of the same compound?
A: Its value is 2.4% and 2.5%.

Q: How did the “α2-6 ST yield (%) of incorporation of radio-labelled CMP-NANA” value (“α2-6 ST yield (%)” below) (α2-6 sialyltransferase; [2]) turn out when CCCCCCCCCCCCC/C=C/[C@@H](O)[C@H](CO[C@@H]1O[C@H](CO)[C@@H](O[C@@H]2O[C@H](CO)[C@H](O)[C@H](O)[C@H]2O)[C@H](O)[C@H]1O)N=[N+]=[N-] [(20)] was run?
A: Its value is 2.9% and 2.8%.

Q: And the “α2-3ST yield (%)” value (α2-3 sialyltransferase; acceptor conc. 100 mM)?
A: The value was 2.5%.

Q: Which “Conversion (galactosylation) by galactosyltransferase” value (galactosyltransferase) does the source give for CCCCCCCCCCCCC/C=C/[C@@H](O)[C@H](CO[C@@H]1O[C@H](CO)[C@@H](O)[C@H](O)[C@H]1NC(C)=O)N=[N+]=[N-] [(27)] here?
A: Its value is “galactosylated”.

Q: With CCCCCCCCCCCCC/C=C/[C@@H](O)[C@H](CO[C@@H]1O[C@H](CO)[C@@H](O[C@@H]2O[C@H](CO)[C@H](O)[C@H](O)[C@H]2O)[C@H](O)[C@H]1NC(C)=O)N=[N+]=[N-] [(28)] as the compound, how does the “α2-6 ST yield (%)” value (α2-6 sialyltransferase; acceptor conc. 6 mM, bracketed numbers are background) read?
A: Its value is 22.2%.

Q: And the “α2-6 ST yield (%)” value (α2-6 sialyltransferase; [2])?
A: The value was 23.2%.

Q: And the “α2-6 ST yield (%)” value (α2-6 sialyltransferase; acceptor conc. 50 mM, bracketed numbers are background)?
A: The value was 47.0%.

Q: What about the “α2-6 ST yield (%)” value (α2-6 sialyltransferase; acceptor conc. 100 mM, bracketed numbers are background) of the same compound?
A: Its value is 59.8%.

Q: And the “α2-3ST yield (%)” value (α2-3 sialyltransferase; acceptor conc. 6 mM)?
A: The value was 1.1%.

Q: What about the “α2-3ST yield (%)” value (α2-3 sialyltransferase; acceptor conc. 100 mM) of the same compound?
A: The value was 1.5% and 1.2%.

Q: What about the “Competition for incorporation of fucose into lipid (acceptor quality)” value [1] of the same compound?
A: Its value is “similarly good acceptors”.

Q: What about the “Incorporation of label into lipid monitored with time” value ([1]; 0.2 mM acceptor, 0.1 mU fucosyltransferase/100 μl, vs control without acceptor) of the same compound?
A: Its value is “incorporation of label into lipid above background”.

Q: What about the “Percentage of fucose transferred” value ([1]; 0.2 mM acceptor) of the same compound?
A: The value was “about 50%”.

Q: What about the “Percentage of fucose transferred” value ([1]; 1 mM acceptor) of the same compound?
A: Its value is roughly 60%.

Q: What about the “Percentage of fucose transferred” value ([1]; 5 mM acceptor) of the same compound?
A: Its value is roughly 65%.

Q: And the “Percentage of fucose transferred” value ([1]; 24 mM acceptor)?
A: Its value is roughly 70%.

Q: Which “Conversion (galactosylation) by galactosyltransferase” value (galactosyltransferase) does the source give for CCCCCCCCCCCCC/C=C/[C@@H](O)[C@H](CO[C@@H]1O[C@H](CO)[C@@H](O)[C@H](O)[C@H]1NC(C)=O)NC(=O)CCCCCCCCCCCCCCCCCCCCCCC [(40), GlcNAc ceramide] here?
A: Its value is “No conversion”.

Q: CC(=O)N[C@H]1C(O)O[C@H](CO)[C@@H](O[C@@H]2O[C@H](CO)[C@H](O)[C@H](O)[C@H]2O)[C@@H]1O (stereo partly drawn) [N-acetyllactosamine, reference compound] was tested. Which “Competition for incorporation of fucose into lipid (acceptor quality)” value [1] did it give?
A: Its value is “similarly good acceptors”.

Q: For CCCCCCCCCCCCC/C=C/[C@@H](O)[C@H](CO[C@@H]1O[C@H](CO)[C@@H](O[C@@H]2O[C@H](CO)[C@H](O)[C@H](O)[C@H]2O)[C@H](O)[C@H]1O)NC(=O)CCCCCCCCCCCCCCCCC [lactosyl-ceramide, Lactosylceramide, reference compound], which “α2-6 ST yield (%)” value (α2-6 sialyltransferase; acceptor conc. 43 mM) is on record?
A: Its value is 2.7%.

Q: What about the “Transfer by α2-3 sialyltransferase / acceptor substrate (in words)” value (α2-3 sialyltransferase; α2-3 sialyltransferase from porcine liver) of the same compound?
A: The value was “not an acceptor substrate”.
